The target in test [1] is T1, human 5-HT3 receptor (Homo sapiens, UniProt P46098).
T1 construct: purchased BIOLINKS K.K; host or cells: HEK-293 cells (membrane preparation)
T1 sequence (P46098 24-478): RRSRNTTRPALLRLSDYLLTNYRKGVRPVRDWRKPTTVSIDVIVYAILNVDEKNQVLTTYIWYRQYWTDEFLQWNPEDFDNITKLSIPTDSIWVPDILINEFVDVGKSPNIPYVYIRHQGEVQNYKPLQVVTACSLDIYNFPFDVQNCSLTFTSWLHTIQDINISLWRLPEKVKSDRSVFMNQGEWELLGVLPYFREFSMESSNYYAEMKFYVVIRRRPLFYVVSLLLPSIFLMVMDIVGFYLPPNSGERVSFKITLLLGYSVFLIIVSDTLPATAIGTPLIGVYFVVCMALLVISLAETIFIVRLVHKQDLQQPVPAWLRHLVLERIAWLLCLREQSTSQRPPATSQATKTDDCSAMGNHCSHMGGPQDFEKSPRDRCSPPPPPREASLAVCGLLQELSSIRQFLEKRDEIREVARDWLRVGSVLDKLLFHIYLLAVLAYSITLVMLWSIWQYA
The experiment in a line: Measurement of affinity to human 5-HT3 receptor (in vitro), [3H]BRL-43694 binding. The conditions noted are these: test compound 100 nmols/L; [3H]BRL-43694 0.5 nmols/L; HEK-293 cell membrane expressing human 5-HT3 receptor; read-out: Percent Inhibition (%) on Each Receptor's Binding at 10^−7M, 5-HT3. The essentials:
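Membranes from HEK-293 cells expressing the receptor were incubated with 0.5 nmol/L radioligand and compound for 60 min at 25 °C in Tris/MgCl2/EDTA buffer, pH 7.5. Bound radioactivity was collected by filtration and counted. Percent inhibition was corrected for non-specific binding defined with 10 μmol/L tropisetron; compounds were tested at 100 nmol/L.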

Test [2] concerns the target T2, 5-HT3 receptor (Rattus norvegicus, UniProt P35563).
T2 construct: from tissue; host or cells: whole animal (SD male rats), serotonin-induced bradycardia
T2 sequence (P35563 24-483): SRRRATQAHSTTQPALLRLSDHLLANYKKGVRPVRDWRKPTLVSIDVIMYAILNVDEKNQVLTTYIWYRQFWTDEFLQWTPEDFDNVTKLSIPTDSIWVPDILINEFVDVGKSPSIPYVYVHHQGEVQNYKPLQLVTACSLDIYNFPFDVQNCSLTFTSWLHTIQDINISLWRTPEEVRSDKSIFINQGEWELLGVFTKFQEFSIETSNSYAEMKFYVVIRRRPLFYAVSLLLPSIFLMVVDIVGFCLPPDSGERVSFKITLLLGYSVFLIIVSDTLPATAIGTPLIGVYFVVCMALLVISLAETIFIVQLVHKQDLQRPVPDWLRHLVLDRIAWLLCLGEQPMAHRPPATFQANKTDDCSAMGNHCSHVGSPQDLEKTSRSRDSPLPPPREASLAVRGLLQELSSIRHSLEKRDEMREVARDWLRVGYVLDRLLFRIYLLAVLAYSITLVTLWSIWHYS
Description: Measurement of 5-HT3 receptor antagonistic action on rats (in vivo): inhibition of serotonin-induced bradycardia (BJ reflex). The following applies: anesthetized SD male rats, serotonin 300 μg/kg 10 minutes later. The procedure: (4) Measurement of 5-HT3 Receptor Antagonistic Action on Rats (in Vivo)
SD male rats (weighing 270-410 g) were anesthetized by peritoneal administration of 1.25 g/kg of urethane (as dissolved in distilled water), and then catheters for measuring blood pressure and heart rate were inserted into their left carotid artery and a catheter for administration of test compound was inserted into their […]. After their blood pressure and heart rate were stabilized, 300 μg/kg of 5-hydroxytryptamine creatinine sulfate (serotonin) was rapidly intravenously administered and thereby induced transient bradycardiac reaction (BC 1) was observed. When the blood pressure and heart rate were re-stabilized after the serotonic administration, the test compounds were intravenously administered to the rats. Ten minutes thereafter, 300 μg/kg of serotonin was once again rapidly intravenously administered and thereby induced transient bradycardiac reaction (BC 2) was observed. Percent inhibition of bradycardia manifestation of each test compound, i.e., BJ reflex inhibition, can be calculated according to the following expression: […]

The results in this text go back to patent publication US7799775B2, “Pyrimidine derivatives” (ASKA Pharmaceutical Co., Ltd., priority 2004, dated 2010).

Regarding `c1cc2ccoc2c(N2CCN3CCC[C@H]3C2)n1` [Production Example 102, 7-((8aS)-octahydropyrrolo[1,2-a]pyrazin-2-yl)furo[2,3-c]-pyridine], the inhibition at 0.1 µM in test [1] is 98.9%. In addition, the “BC Inhibition (%)” value in test [2] (dose 3.0 mg/kg intravenous) worked out at 61.5%. As to `Cc1ccc2ccnc(N3CCN(C)CC3)c2c1` [Production Example 47, 7-methyl-1-(4-methylpiperazin-1-yl)isoquinoline], the inhibition at 0.1 µM in test [1] was 93.6%. Moreover, the “BC Inhibition (%)” value in test [2] (dose 1.0 mg/kg intravenous) turned out to be 89.9%.

Turning to `CCn1c(CCCCN2CCN(c3ccc4ccccc4n3)CC2)nc2c(c1=O)CCCC2` [Example 7-2, 3-2-[4-(4-quinolin-2-ylpiperazin-1-yl)butyl]-5,6,7,8-tetrahydro-3H-quinazolin-4-one], the inhibition at 0.1 µM in test [1] turned out to be 94.5%. Regarding `COc1ccc2ccnc(N3CCNC(C)C3)c2c1` (stereo not drawn) [Production Example 38, 7-methoxy-1-(3-methylpiperazin-1-yl)isoquinoline], in test [1], the inhibition at 0.1 µM is 93.1%. Also, the “BC Inhibition (%)” value in test [2] (dose 1.0 mg/kg intravenous) is given as 82.9%. As to `Cc1cc(N2CCN(CCCCc3nc4ccccc4c(=O)n3N)CC2)nc2ccccc12` [Example 4-4, 3-amino-2-[4-[4-(4-methylquinolin-2-yl)piperazin-1-yl]butyl]-3H-quinazolin-4-one], the inhibition at 0.1 µM in test [1] turned out to be 78.6%. Further, the “BC Inhibition (%)” value in test [2] (dose 0.1 mg/kg intravenous) is on record as 68.7%. In the case of `CCn1c(CCCCN2CCN(c3cc(C)c4ccccc4n3)CC2)nc2c(c1=O)CCCC2` [Example 7-7, 3-ethyl-2-[4-[4-(4-methylquinolin-2-yl)piperazin-1-yl]butyl]-5,6,7,8-tetrahydro-3H-quinazolin-4-one], in test [1], the inhibition at 0.1 µM came to 95%. Besides, the “BC Inhibition (%)” value in test [2] (dose 1.0 mg/kg intravenous) is reported as 85.4%. For `COc1ccc2ccnc(N3CCN4CCC[C@H]4C3)c2c1` [Production Example 72, 1-((8aS)-octahydropyrrolo[1,2-a]pyrazin-2-yl)-7-methoxyisoquinoline], the inhibition at 0.1 µM in test [1] was determined as 99.8%. The “BC Inhibition (%)” value in test [2] (dose 0.3 mg/kg intravenous) was found to be 72.5%.

For the molecule `CN1CCN(c2nccc3sccc23)CC1` [Production Example 8, 4-(4-methylpiperazin-1-yl)thieno[3,2-c]pyridine], the inhibition at 0.1 µM in test [1] came to 93.3%. As for `Cc1cc(N2CCN(CCCCc3nc4c(c(=O)n3C)CCCC4)CC2)nc2ccccc12` [Example 7-6, 3-methyl-2-[4-[4-(4-methylquinolin-2-yl)piperazin-1-yl]butyl]-5,6,7,8-tetrahydro-3H-quinazolin-4-one], the inhibition at 0.1 µM in test [1] came out at 93.8%. In addition, the “BC Inhibition (%)” value in test [2] (dose 0.01 mg/kg intravenous) is 58.5%.

Take `CN1CCN(c2nccc3ccsc23)CC1` [Production Example 6, 7-(4-methylpiperazin-1-yl)thieno[2,3-c]pyridine]: the inhibition at 0.1 µM in test [1] came out at 97.5%. In the case of `Nn1c(CCCCN2CCN(c3ccc4ccccc4n3)CC2)nc2ccccc2c1=O` [Example 4-3, 3-amino-2-[4-(4-quinolin-2-ylpiperazin-1-yl)butyl]-3H-quinazolin-4-one], the inhibition at 0.1 µM in test [1] was 83.6%. For the same molecule, in test [2] (dose 1.0 mg/kg intravenous), the “BC Inhibition (%)” value was 90.1%. As to `Nn1c(CCCCN2CCN(c3ccc4ccccc4n3)CC2)nc2c(c1=O)CCCC2` [Example 4-1, 3-amino-2-[4-(4-quinolin-2-ylpiperazin-1-yl)butyl]-5,6,7,8-tetrahydro-3H-quinazolin-4-one], in test [1], the inhibition at 0.1 µM was determined as 81.2%. Moreover, the “BC Inhibition (%)” value in test [2] (dose 0.1 mg/kg intravenous) is given as 70.4%. Turning to `c1cc2sccc2c(N2CCN3CCC[C@H]3C2)n1` [Production Example 104, 4-((8aS)-octahydropyrrolo[1,2-a]pyrazin-2-yl)thieno[3,2-c]pyridine], the inhibition at 0.1 µM in test [1] came out at 99.3%. In addition, in test [2] (dose 10.0 mg/kg intravenous), the “BC Inhibition (%)” value turned out to be 46.1%.

As to `Nn1c(CCCCN2CCN(c3ccc4ccccc4n3)CC2)nc2ccsc2c1=O` [Example 4-18, 3-amino-2-[4-(4-quinolin-2-ylpiperazin-1-yl)butyl]-3H-thieno[3,2-d]-pyrimidin-4-one], the inhibition at 0.1 µM in test [1] was determined as 50.9%. The “BC Inhibition (%)” value in test [2] (dose 0.1 mg/kg intravenous) came to 35.6%. Turning to `Nn1c(CCCCN2CCN(c3ccc4ccccc4n3)CC2)nc2cccc(Cl)c2c1=O` [Example 4-25, 3-amino-5-chloro-2-[4-(4-quinolin-2-ylpiperazin-1-yl)butyl]-3H-quinazolin-4-one], the inhibition at 0.1 µM in test [1] is 43.3%. In addition, in test [2] (dose 0.1 mg/kg intravenous), the “BC Inhibition (%)” value is recorded as 49.1%. As to `Cn1c(CCCCN2CCN(c3ccc4ccccc4n3)CC2)nc2c(c1=O)CCCC2` [Example 7-1, 3-methyl-2-[4-(4-quinolin-2-ylpiperazin-1-yl)butyl]-5,6,7,8-tetrahydro-3H-quinazolin-4-one], in test [1], the inhibition at 0.1 µM came to 94.2%. In addition, in test [2] (dose 0.1 mg/kg intravenous), the “BC Inhibition (%)” value was found to be 90.3%.

As to `Clc1ccc2ccnc(N3CCN4CCC[C@H]4C3)c2c1` [Production Example 73, 7-chloro-1-((8aS)-octahydropyrrolo[1,2-a]pyrazin-2-yl)isoquinoline], the inhibition at 0.1 µM in test [1] amounted to 99.3%. Moreover, the “BC Inhibition (%)” value in test [2] (dose 0.01 mg/kg intravenous) came to 52.2%.

`Cn1c(CCCCN2CCN(c3ccc4ccccc4n3)CC2)nc2ccccc2c1=O` [Example 7-20, 3-methyl-2-[4-(4-quinolin-2-ylpiperazin-1-yl)butyl]-3H-quinazolin-4-one]: in test [1], the inhibition at 0.1 µM is 92.9%. Besides, in test [2] (dose 0.01 mg/kg intravenous), the “BC Inhibition (%)” value is 64.7%. Regarding `Cc1cc2c(N3CCN4CCC[C@H]4C3)nccc2s1` [Production Example 107, 4-((8aS)-octahydropyrrolo[1,2-a]pyrazin-2-yl)-2-methylthieno[3,2-c]-pyridine], the inhibition at 0.1 µM in test [1] was determined as 95.9%. On to `c1cc2ccsc2c(N2CCN3CCC[C@H]3C2)n1` [Production Example 103, 7-((8aS)-octahydropyrrolo[1,2-a]pyrazin-2-yl)thieno[2,3-c]pyridine], for which the inhibition at 0.1 µM in test [1] was 99.5%. The “BC Inhibition (%)” value in test [2] (dose 3.0 mg/kg intravenous) was found to be 57.6%. `c1cc2ccsc2c(N2CCN3CCC[C@@H]3C2)n1` [Production Example 108, 7-((8aR)-octahydropyrrolo[1,2-a]pyrazin-2-yl)thieno[2,3-c]pyridine]: the inhibition at 0.1 µM in test [1] was found to be 100%. `Clc1ccc2ccnc(N3CCNCC3)c2c1` [Production Example 49, 7-chloro-1-piperazin-1-ylisoquinoline]: the inhibition at 0.1 µM in test [1] came to 96.3%. The “BC Inhibition (%)” value in test [2] (dose 1.0 mg/kg intravenous) came to 96.8%.

The term inhibition denotes how much of the control response was suppressed.
